Measurements reported in US8969335B2, “Benzonitrile derivatives as kinase inhibitors” (MERCK PATENT GmbH, priority 2011, dated 2015).

Columns and labels:
[1] = target: IKKε (Homo sapiens (Human), UniProt Q14164); test: IKKε kinase assay (384-well flashplate assay); format: biochemical; conditions: 1 nM IKKε, 10 μM ATP, 30° C., 2 hours; read-out: IKKε enzyme assay IC50
Description: Test for the Inhibition of IKKε
IKKε—Kinase Assay (IKKepsilon)
The kinase assay is performed as 384-well flashplate assay (for example for Topcount measurement).
1 nM IKKε, 800 nM biotinylated IκBα(19-42) peptide (Biotin-C6-C6-[…]) and 10 μM ATP (spiked with 0.3 μCi of ^33P-ATP/well) are incubated at 30° C. for 2 hours in a total volume of 50 μl (10 mM MOPS, 10 mM Mg acetate, 0.1 mM EGTA, 1 mM dithiothreitol, 0.02% of Brij35, 0.1% of BSA, 0.1% of BioStab, pH 7.5) with or without test compound. The reaction is stopped using 25 μl of 200 mM EDTA. After 30 min at room temperature, the liquid is removed, and each well is washed three times with 100 μl of 0.9% sodium chloride solution. Non-specific reaction is determined in the presence of 3 μM MSC2119074 (BX-795). The radioactivity is measured using a Topcount (PerkinElmer). The results (for example IC50 values) are calculated using program tools provided by the IT Department (for example AssayExplorer, Symyx).

[2] = target: TANK binding kinase (TBK1) (Homo sapiens (Human), UniProt Q9UHD2); test: TBK1 enzyme assay (384-well flashplate kinase assay); format: biochemical; conditions: 0.6 nM TBK1, 10 μM ATP, 30° C., 120 min
Sequence of TANK binding kinase (TBK1) (Q9UHD2 whole entry): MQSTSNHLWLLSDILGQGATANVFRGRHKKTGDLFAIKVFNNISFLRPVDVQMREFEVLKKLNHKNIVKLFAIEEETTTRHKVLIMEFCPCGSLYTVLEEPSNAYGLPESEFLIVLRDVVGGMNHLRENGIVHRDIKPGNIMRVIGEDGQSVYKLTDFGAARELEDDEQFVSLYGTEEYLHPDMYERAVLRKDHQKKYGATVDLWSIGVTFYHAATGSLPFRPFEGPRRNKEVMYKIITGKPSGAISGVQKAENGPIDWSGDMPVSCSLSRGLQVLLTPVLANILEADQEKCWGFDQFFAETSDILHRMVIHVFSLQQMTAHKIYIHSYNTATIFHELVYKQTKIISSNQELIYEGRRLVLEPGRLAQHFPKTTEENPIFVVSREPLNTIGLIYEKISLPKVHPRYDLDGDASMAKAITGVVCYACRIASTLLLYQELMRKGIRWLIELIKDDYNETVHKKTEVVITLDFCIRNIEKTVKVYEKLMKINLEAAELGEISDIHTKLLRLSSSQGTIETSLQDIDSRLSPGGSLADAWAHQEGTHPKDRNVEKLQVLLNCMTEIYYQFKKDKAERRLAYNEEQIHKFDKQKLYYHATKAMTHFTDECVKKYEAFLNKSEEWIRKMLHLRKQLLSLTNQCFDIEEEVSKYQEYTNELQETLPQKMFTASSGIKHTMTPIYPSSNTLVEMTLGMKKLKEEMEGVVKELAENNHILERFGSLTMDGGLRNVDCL

Sequence of IKKε (Q14164 whole entry): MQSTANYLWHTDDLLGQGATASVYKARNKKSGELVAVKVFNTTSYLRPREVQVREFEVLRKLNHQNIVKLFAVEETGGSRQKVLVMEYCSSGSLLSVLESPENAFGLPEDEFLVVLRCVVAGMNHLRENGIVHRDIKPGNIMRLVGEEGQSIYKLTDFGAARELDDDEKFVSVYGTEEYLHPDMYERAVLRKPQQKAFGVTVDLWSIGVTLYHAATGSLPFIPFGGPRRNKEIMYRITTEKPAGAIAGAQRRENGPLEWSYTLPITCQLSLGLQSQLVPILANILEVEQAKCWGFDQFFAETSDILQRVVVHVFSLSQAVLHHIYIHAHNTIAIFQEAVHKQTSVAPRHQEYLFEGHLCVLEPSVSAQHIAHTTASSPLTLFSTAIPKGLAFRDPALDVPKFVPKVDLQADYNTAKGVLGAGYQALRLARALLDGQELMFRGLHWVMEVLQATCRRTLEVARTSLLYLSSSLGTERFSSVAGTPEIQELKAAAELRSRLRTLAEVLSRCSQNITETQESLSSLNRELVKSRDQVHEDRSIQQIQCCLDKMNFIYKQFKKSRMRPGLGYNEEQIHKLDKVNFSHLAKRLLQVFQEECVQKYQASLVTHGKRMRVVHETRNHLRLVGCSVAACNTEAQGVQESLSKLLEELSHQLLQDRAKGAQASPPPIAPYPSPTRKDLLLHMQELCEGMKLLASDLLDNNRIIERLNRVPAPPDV

SMILES	IC50 [1] [µM]	IC50 [2] [µM]
COCCn1cc(Nc2cc(-c3ccc(OCC4CCC4)c(C#N)c3)ccn2)cn1 [Compound A110, 2-cyclobutylmethoxy-5-{2-[1-(2-methoxyethyl)-1H-pyrazol-4-ylamino]-pyridin-4-yl}benzonitrile]	0.082	0.49
N#Cc1cc(-c2ccnc(Nc3cnn(C4CCNC4)c3)n2)ccc1OC1CCOCC1 (stereo not shown) [Compound A40, 5-[2-(1-Pyrrolidin-3-yl-1H-pyrazol-4-ylamino)pyrimidin-4-yl]-2-(tetrahydropyran-4-yloxy)benzonitrile]	0.005	0.007
N#Cc1cc(-c2ccnc(Nc3cnn(CC4CCOC4)c3)n2)ccc1OC1CCOCC1 (stereo not shown) [Compound A41, 5-{2-[1-(Tetrahydrofuran-3-ylmethyl)-1H-pyrazol-4-ylamino]pyrimidin-4-yl}-2-(tetrahydropyran-4-yloxy)benzonitrile]	0.025	0.012
COCCn1cc(Nc2cc(-c3ccc(OCC4CCN(C(C)=O)CC4)c(C#N)c3)ccn2)cn1 [Compound A114, 2-(1-acetylpiperidin-4-ylmethoxy)-5-{2-[1-(2-methoxyethyl)-1H-pyrazol-4-ylamino]pyridin-4-yl}benzonitrile]	0.65	5.5
N#Cc1cc(-c2ccnc(Nc3ccc4oc(C(N)=O)cc4c3)n2)ccc1OC1CCOCC1 [Compound A42, 5-{4-[3-Cyano-4-(tetrahydropyran-4-yloxy)phenyl]pyrimidin-2-ylamino}benzofuran-2-carboxamide]	0.015	0.01
Cn1nc(Nc2nccc(-c3ccc(OC4CCOCC4)c(C#N)c3)n2)ccc1=O [Compound A68, 5-[2-(1-methyl-6-oxo-1,6-dihydropyridazin-3-ylamino)pyrimidin-4-yl]-2-(tetrahydropyran-4-yloxy)benzonitrile]	0.2	0.16
Cc1coc(Nc2nccc(-c3ccc(OC4CCOCC4)c(C#N)c3)n2)n1 [Compound A93, 5-[2-(4-methyloxazol-2-ylamino)pyrimidin-4-yl]-2-(tetrahydropyran-4-yloxy)benzonitrile]	0.31	0.55
N#Cc1cc(-c2ccnc(Nc3ccc(CO)cn3)c2)ccc1OCC1CCC1 [Compound A111, 2-cyclobutylmethoxy-5-[2-(5-hydroxymethylpyridin-2-ylamino)pyridin-4-yl]benzonitrile]	0.2	0.089
N#Cc1cc(-c2ccnc(Nc3cnn(CCn4cccn4)c3)n2)ccc1OC1CCOCC1 [Compound A43, 5-{2-[1-(2-Pyrazol-1-ylethyl)-1H-pyrazol-4-ylamino]pyrimidin-4-yl}-2-(tetrahydropyran-4-yloxy)benzonitrile]	0.065	0.07
COCCn1cc(Nc2cc(-c3ccc(OCC4CC4)c(C#N)c3)ccn2)cn1 [Compound A105, 2-cyclopropylmethoxy-5-{2-[1-(2-methoxyethyl)-1H-pyrazol-4-ylamino]-pyridin-4-yl}benzonitrile]	0.065	0.22
CC(=O)N1CCC(COc2ccc(-c3ccnc(Nc4ccc(CO)cn4)c3)cc2C#N)CC1 [Compound A115, 2-(1-acetylpiperidin-4-ylmethoxy)-5-[2-(5-hydroxymethylpyridin-2-ylamino)pyridin-4-yl]benzonitrile]	1.1	1.5
N#Cc1cc(-c2ccnc(Nc3cnn(CCC4CCN(C(=O)CN)CC4)c3)c2)ccc1OC1CCOCC1 [Compound A30, 5-[2-(1-{2-[1-(2-Aminoacetyl)piperidin-4-yl]ethyl}-1H-pyrazol-4-ylamino)pyridin-4-yl]-2-(tetrahydropyran-4-yloxy)benzonitrile]	0.045	0.042
N#Cc1cc(-c2ccnc(Nc3ccc(=O)[nH]n3)n2)ccc1OC1CCOCC1 [Compound A69, 5-[2-(6-oxo-1,6-dihydropyridazin-3-ylamino)pyrimidin-4-yl]-2-(tetrahydropyran-4-yloxy)benzonitrile]	0.65	1.6
N#Cc1cc(-c2ccnc(Nc3nc(C4CC4)cs3)n2)ccc1OC1CCOCC1 [Compound A87, 5-[2-(4-cyclopropylthiazol-2-ylamino)pyrimidin-4-yl]-2-(tetrahydropyran-4-yloxy)benzonitrile]	0.3	0.3
N#Cc1cc(-c2ccnc(Nc3cnn(CCC4CCNCC4)c3)n2)ccc1OC1CCOCC1 [Compound A45, 5-{2-[1-(2-Piperidin-4-ylethyl)-1H-pyrazol-4-ylamino]pyrimidin-4-yl}-2-(tetrahydropyran-4-yloxy)benzonitrile]	0.002	0.002
N#Cc1cc(-c2ccnc(Nc3cn[nH]c3)c2)ccc1OCC1CC1 [Compound A104, 2-cyclopropylmethoxy-5-[2-(1H-pyrazol-4-ylamino)pyridin-4-yl]-benzonitrile]	0.096	0.46

The remaining lines, values ahead:

IC50 [1] [µM]	IC50 [2] [µM]	SMILES
0.067	0.29	N#Cc1cc(-c2ccnc(Nc3cnn(C4CNC4)c3)c2)ccc1OC1CCOCC1 [Compound A25, 5-[2-(1-Azetidin-3-yl-1H-pyrazol-4-ylamino)pyridin-4-yl]-2-(tetrahydropyran-4-yloxy)benzonitrile]
0.025	0.016	N#Cc1cc(-c2ccnc(Nc3cnn(CCN4CCOCC4)c3)n2)ccc1OC1CCOCC1 [Compound A39, 5-{2-[1-(2-Morpholin-4-ylethyl)-1H-pyrazol-4-ylamino]pyrimidin-4-yl}-2-(tetrahydropyran-4-yloxy)benzonitrile]
0.43	0.35	N#Cc1cc(-c2ccnc(Nc3nccnc3CO)c2)ccc1OC1CCOCC1 [Compound A102, 5-[2-(3-hydroxymethylpyrazin-2-ylamino)pyridin-4-yl]-2-(tetrahydropyran-4-yloxy)benzonitrile]
0.61	0.81	CC(=O)N1CCC(COc2ccc(-c3ccnc(Nc4ccc(N5CCOCC5)cn4)c3)cc2C#N)CC1 [Compound A117, 2-(1-acetylpiperidin-4-ylmethoxy)-5-[2-(5-morpholin-4-ylpyridin-2-ylamino)pyridin-4-yl]benzonitrile]
0.039	0.014	N#Cc1cc(-c2ccnc(Nc3ccc(C4CCOCC4)nn3)c2)ccc1OC1CCOCC1 [Compound A100, 2-(tetrahydropyran-4-yloxy)-5-{2-[6-(tetrahydropyran-4-yl)pyridazin-3-yl-amino]pyridin-4-yl}benzonitrile]
0.39	0.33	N#Cc1cc(-c2ccnc(Nc3cncc(N4CCOCC4)n3)c2)ccc1OC1CCOCC1 [Compound A85, 5-[2-(6-morpholin-4-ylpyrazin-2-ylamino)pyridin-4-yl]-2-(tetrahydropyran-4-yloxy)benzonitrile]
0.007	0.071	N#Cc1cc(-c2ccnc(Nc3cnn(C4CCNCC4)c3)c2)ccc1OC1CCOCC1 [Compound A16, 5-[2-(1-Piperidin-4-yl-1H-pyrazol-4-ylamino)pyridin-4-yl]-2-(tetrahydropyran-4-yloxy)benzonitrile]
0.021	0.014	N#Cc1cc(-c2ccnc(Nc3ccc(CO)cn3)c2)ccc1OC1CCOCC1 [Compound A15, 5-[2-(5-Hydroxymethylpyridin-2-ylamino)pyridin-4-yl]-2-(tetrahydropyran-4-yloxy)benzonitrile]
0.021	0.032	N#Cc1cc(-c2ccnc(Nc3ccc(C(N)=O)cn3)c2)ccc1OC1CCOCC1 [Compound A37, 6-{4-[3-Cyano-4-(tetrahydropyran-4-yloxy)phenyl]pyridin-2-ylamino}nicotinamide]
0.53	0.31	N#Cc1cc(-c2ccnc(Nc3ccc(C(F)(F)F)cn3)c2)ccc1OC1CCOCC1 [Compound A13, 2-(Tetrahydropyran-4-yloxy)-5-[2-(5-trifluoromethylpyridin-2-ylamino)pyridin-4-yl]-benzonitrile]
0.013	0.008	N#Cc1cc(-c2ccnc(Nc3cc(CO)ccn3)c2)ccc1OC1CCOCC1 [Compound A18, 5-[2-(4-Hydroxymethylpyridin-2-ylamino)pyridin-4-yl]-2-(tetrahydropyran-4-yloxy)benzonitrile]
0.15	0.23	N#Cc1cc(-c2ccnc(Nc3cc(N4CCOCC4)ccn3)c2)ccc1OC1CCOCC1 [Compound A82, 5-[2-(4-morpholin-4-ylpyridin-2-ylamino)pyridin-4-yl]-2-(tetrahydropyran-4-yloxy)benzonitrile]
0.21	0.35	CN1CCN(c2ccnc(Nc3cc(-c4ccc(OC5CCOCC5)c(C#N)c4)ccn3)c2)CC1 [Compound A84, 5-{2-[4-(4-methylpiperazin-1-yl)pyridin-2-ylamino]pyridin-4-yl}-2-(tetrahydropyran-4-yloxy)benzonitrile]
0.045	0.041	N#Cc1cc(-c2ccnc(Nc3ccc(CN4CC5(COC5)C4)cn3)c2)ccc1OC1CCOCC1 [Compound A88, 5-{2-[5-(2-oxa-6-azaspiro[3.3]hept-6-ylmethyl)pyridin-2-yl-amino]pyridin-4-yl}-2-(tetrahydropyran-4-yloxy)benzonitrile]
0.14	–	N#Cc1cc(-c2ccnc(Nc3ncc4c(n3)CCNC4)c2)ccc1OC1CCOCC1 [Compound A36, 2-(Tetrahydropyran-4-yloxy)-5-[2-(5,6,7,8-tetrahydropyrido[4,3-d]pyrimidin-2-ylamino)pyridin-4-yl]benzonitrile]
